From PMC11997881, “Comprehensive Characterization of Bruton’s Tyrosine Kinase Inhibitor Specificity, Potency, and Biological Effects: Insights into Covalent and Noncovalent Mechanistic Signatures” (ACS Pharmacology & Translational Science, 2025)

How the values were obtained:
Conditions in all cases: 1 μM
[1] = molecular target: JNK3 (MAPK10) (Homo sapiens, UniProt P53779); experiment: scanMAX binding POC, JNK3
Description: (§9) The compounds were diluted directly into the assays such that the final concentration of DMSO was 0.9%. No enzyme purification steps were performed on the protein extracts before adding them to the reaction mixture, and the protein extracts were diluted 10,000-fold in the final reaction mixture (the final DNA-tagged enzyme concentration was less than 0.1 nM). Binding assay mixtures were incubated at 25 °C with shaking for 1 h. […] The concentration of wild-type or mutant BTK in the eluates was then determined using quantitative PCR. […] Each assay’s affinity ligand concentration on the magnetic beads has been optimized to ensure that the true thermodynamic Kd values for competitor molecules were measured, as described in detail previously99.
(§10) Comparison of BTK inhibitor specificity to c-Jun N-terminal kinases (JNK1-3/MAPKP8-10).
(§11) a The percent of control (POC) is the percent of kinase that was competed off its control ligand relative to the positive and negative controls at the screening concentration56. A zero POC signifies that the compound

[2] = molecular target: T1, TXK (Homo sapiens, UniProt P42681); experiment: scanMAX binding POC, TXK
T1 sequence (P42681 1-527): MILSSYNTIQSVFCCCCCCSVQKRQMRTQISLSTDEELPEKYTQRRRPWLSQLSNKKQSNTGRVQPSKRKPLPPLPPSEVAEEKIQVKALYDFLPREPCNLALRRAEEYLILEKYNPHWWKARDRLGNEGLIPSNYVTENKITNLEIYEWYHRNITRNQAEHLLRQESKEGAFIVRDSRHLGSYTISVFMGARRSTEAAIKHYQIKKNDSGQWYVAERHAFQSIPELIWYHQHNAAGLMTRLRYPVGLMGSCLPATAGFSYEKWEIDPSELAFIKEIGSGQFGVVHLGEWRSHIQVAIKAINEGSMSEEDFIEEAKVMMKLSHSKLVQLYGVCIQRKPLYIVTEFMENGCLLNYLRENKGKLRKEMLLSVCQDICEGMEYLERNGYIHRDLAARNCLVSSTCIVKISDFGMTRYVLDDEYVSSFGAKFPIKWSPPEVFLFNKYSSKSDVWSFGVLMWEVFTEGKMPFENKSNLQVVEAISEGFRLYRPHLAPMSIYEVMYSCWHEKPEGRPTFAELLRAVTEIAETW
From the text: (§1) Comprehensive Characterization of Bruton’s Tyrosine Kinase Inhibitor Specificity, Potency, and
(§2) Biological Effects: Insights into Covalent and Non-Covalent Mechanistic Signatures
(§3) Antonia C. Darragh1, Andrew M. Hanna1, Justin H. Lipner2, Alastair J. King2, Nicole B. Servant1, Mirza Jahic1*
(§4) *To whom correspondence should be addressed: Mirza Jahic, e-mail address: Mirza.Jahic@discovery.eurofinsus.com
(§5) Supporting Table S1. Comparison of BTK inhibitor specificity to TEC family members. TEC family members are
(§6) Burton’s tyrosine kinase (BTK), tyrosine kinase expressed in hepatocellular carcinoma (TEC), bone marrow-
(§7) expressed kinase (BMX/ETK), and T cell-expressed kinase (TXK/RLK), and interleukin-2-inducible T cell kinase
(§8) A zero POC signifies that the compound

[3] = molecular target: T2, MKK7 (Homo sapiens, UniProt O14733); experiment: scanMAX binding POC, MKK7
T2 sequence (O14733 1-419): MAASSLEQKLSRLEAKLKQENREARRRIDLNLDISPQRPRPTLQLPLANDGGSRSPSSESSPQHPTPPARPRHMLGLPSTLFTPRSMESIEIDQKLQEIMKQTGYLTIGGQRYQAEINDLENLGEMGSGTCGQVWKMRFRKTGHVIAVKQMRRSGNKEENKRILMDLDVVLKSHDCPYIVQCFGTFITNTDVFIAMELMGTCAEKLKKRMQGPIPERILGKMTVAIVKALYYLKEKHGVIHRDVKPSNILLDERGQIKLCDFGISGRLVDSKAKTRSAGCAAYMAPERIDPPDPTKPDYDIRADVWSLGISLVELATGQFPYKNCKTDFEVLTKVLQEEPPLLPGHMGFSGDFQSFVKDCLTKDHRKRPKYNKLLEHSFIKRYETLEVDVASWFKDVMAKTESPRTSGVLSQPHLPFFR

[4] = molecular target: T3, JAK3 (JH1 catalytic domain) (Homo sapiens, UniProt P52333); experiment: scanMAX binding POC, JAK3
T3 construct: The JAK3 POC is for its JH1 catalytic domain
T3 sequence (P52333 822-1111 limits assumed): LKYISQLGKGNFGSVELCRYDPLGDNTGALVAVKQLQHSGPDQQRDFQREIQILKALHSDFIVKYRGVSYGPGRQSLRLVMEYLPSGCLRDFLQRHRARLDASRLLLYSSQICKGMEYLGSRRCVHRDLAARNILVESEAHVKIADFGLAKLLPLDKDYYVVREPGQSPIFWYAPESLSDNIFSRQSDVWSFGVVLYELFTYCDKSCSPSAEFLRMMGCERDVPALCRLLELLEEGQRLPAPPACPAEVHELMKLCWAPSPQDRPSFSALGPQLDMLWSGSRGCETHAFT

[5] = molecular target: T4, ITK (Homo sapiens, UniProt Q08881); experiment: scanMAX binding POC, ITK
T4 sequence (Q08881 1-620): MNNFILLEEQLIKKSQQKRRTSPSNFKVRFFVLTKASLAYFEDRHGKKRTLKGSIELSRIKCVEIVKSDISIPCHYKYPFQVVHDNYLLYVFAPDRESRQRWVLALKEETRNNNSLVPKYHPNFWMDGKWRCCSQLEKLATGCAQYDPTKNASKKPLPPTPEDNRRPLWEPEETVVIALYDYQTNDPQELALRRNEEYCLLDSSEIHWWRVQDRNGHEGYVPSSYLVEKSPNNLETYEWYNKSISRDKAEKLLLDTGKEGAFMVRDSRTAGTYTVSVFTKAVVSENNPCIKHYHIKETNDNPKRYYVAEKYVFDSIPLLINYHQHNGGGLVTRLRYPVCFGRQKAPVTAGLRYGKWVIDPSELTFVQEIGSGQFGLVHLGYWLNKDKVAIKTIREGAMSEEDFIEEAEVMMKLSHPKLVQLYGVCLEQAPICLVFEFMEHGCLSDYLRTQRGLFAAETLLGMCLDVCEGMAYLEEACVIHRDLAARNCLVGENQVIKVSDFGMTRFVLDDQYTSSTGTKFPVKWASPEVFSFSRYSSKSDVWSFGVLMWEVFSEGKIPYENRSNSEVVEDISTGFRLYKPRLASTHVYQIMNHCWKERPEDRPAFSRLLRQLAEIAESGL
From the text: as §1, §2, §3, §4, §5, §6, §7, §8

[6] = molecular target: EGFR (Homo sapiens, UniProt P00533); experiment: scanMAX binding POC, EGFR
Chain of EGFR (P00533 25-1210): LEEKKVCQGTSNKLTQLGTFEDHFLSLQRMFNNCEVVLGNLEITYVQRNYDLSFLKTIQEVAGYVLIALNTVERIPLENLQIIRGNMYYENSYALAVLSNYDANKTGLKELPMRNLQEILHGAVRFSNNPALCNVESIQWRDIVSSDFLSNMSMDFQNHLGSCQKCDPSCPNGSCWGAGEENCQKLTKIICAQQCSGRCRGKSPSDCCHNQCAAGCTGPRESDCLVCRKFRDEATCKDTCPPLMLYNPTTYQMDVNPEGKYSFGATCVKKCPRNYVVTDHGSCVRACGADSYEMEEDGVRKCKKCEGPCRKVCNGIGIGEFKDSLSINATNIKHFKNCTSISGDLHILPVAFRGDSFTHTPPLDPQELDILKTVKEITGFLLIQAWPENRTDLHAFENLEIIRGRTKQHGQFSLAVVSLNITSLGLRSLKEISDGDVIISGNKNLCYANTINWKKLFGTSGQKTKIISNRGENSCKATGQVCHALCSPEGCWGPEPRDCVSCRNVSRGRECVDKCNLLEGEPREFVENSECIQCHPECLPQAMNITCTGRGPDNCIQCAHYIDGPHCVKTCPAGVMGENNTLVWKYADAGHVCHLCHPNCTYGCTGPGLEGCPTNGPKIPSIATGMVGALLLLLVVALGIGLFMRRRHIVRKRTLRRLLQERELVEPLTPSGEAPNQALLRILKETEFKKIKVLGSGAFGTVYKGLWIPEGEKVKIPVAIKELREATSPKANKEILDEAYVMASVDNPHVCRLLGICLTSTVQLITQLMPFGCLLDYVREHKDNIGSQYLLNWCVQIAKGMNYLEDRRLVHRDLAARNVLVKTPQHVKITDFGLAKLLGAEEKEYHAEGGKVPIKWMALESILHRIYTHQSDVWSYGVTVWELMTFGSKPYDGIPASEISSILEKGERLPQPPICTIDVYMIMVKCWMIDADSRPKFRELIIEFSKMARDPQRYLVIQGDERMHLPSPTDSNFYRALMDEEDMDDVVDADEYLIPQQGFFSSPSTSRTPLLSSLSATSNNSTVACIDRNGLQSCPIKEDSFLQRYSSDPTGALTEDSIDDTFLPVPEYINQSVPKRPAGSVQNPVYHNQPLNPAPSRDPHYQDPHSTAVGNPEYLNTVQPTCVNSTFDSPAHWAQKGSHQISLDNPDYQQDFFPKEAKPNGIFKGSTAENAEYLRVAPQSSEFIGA

[7] = molecular target: JNK1 (MAPK8) (Homo sapiens, UniProt P45983); experiment: scanMAX binding POC, JNK1
Chain of JNK1 (MAPK8) (P45983 whole entry): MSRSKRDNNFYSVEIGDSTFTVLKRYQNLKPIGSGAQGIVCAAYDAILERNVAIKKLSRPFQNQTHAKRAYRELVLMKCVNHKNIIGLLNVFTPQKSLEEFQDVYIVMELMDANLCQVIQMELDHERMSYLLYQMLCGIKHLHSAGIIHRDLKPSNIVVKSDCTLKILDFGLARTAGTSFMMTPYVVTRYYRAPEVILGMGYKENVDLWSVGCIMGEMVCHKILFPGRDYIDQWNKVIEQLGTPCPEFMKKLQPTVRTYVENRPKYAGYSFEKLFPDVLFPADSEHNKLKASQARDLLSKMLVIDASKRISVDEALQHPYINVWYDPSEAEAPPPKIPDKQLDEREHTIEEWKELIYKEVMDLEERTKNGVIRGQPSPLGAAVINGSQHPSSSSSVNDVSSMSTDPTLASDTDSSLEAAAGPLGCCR
Description: as §9, §10, §11

[8] = molecular target: ERBB2 (Homo sapiens, UniProt P04626); experiment: scanMAX binding POC, ERBB2
Chain of ERBB2 (P04626 23-1255): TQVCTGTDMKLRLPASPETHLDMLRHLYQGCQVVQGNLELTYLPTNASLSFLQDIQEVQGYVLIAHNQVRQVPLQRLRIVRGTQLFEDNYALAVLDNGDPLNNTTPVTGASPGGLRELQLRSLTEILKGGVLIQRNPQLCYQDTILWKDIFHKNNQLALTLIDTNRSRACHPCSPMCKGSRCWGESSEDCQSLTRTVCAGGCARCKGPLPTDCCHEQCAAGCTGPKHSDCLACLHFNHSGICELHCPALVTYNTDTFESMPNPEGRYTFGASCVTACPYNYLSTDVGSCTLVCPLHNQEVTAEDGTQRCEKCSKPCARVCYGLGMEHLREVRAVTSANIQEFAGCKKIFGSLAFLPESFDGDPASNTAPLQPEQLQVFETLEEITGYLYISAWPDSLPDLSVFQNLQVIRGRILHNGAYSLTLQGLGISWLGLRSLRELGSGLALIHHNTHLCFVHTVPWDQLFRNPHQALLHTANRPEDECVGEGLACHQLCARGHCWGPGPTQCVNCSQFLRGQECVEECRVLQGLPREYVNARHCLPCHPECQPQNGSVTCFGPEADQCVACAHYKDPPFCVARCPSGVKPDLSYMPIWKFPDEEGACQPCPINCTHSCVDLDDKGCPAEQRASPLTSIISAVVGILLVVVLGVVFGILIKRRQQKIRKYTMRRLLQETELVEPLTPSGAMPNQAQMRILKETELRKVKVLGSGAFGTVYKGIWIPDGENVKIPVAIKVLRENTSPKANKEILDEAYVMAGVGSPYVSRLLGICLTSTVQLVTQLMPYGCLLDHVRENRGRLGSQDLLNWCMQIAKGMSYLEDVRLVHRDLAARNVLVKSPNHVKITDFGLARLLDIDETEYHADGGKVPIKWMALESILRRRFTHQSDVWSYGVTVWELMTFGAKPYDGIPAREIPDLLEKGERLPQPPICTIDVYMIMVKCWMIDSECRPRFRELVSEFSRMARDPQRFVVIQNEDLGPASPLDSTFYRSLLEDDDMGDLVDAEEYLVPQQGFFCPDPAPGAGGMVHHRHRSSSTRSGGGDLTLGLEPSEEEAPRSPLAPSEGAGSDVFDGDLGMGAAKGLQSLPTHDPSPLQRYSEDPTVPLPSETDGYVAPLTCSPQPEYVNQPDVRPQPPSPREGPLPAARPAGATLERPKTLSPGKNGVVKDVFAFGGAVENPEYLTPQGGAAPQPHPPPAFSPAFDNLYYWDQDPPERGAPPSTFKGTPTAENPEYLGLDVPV

[9] = molecular target: T5, TEC (Homo sapiens, UniProt P42680); experiment: scanMAX binding POC, TEC
T5 sequence (P42680 1-631): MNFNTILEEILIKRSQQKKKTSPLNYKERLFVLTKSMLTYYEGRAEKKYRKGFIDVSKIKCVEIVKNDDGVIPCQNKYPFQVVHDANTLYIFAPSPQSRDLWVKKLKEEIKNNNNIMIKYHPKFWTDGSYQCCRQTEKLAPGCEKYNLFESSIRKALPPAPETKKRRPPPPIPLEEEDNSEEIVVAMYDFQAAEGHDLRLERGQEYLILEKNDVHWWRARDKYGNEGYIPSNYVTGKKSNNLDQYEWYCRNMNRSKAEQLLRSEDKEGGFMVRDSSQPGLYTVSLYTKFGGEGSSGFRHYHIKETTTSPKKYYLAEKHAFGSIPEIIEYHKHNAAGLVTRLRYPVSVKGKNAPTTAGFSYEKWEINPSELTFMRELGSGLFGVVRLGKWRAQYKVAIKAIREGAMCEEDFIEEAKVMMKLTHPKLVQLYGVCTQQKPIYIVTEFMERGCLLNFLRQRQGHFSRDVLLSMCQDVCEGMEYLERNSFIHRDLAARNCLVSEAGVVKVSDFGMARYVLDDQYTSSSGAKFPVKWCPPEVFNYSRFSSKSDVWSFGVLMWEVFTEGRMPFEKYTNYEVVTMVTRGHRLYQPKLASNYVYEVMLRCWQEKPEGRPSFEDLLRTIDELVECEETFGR
From the text: as §1, §2, §3, §4, §5, §6, §7, §8

[10] = molecular target: ERBB4 (Homo sapiens, UniProt Q15303); experiment: scanMAX binding POC, ERBB4
Chain of ERBB4 (Q15303 26-1308): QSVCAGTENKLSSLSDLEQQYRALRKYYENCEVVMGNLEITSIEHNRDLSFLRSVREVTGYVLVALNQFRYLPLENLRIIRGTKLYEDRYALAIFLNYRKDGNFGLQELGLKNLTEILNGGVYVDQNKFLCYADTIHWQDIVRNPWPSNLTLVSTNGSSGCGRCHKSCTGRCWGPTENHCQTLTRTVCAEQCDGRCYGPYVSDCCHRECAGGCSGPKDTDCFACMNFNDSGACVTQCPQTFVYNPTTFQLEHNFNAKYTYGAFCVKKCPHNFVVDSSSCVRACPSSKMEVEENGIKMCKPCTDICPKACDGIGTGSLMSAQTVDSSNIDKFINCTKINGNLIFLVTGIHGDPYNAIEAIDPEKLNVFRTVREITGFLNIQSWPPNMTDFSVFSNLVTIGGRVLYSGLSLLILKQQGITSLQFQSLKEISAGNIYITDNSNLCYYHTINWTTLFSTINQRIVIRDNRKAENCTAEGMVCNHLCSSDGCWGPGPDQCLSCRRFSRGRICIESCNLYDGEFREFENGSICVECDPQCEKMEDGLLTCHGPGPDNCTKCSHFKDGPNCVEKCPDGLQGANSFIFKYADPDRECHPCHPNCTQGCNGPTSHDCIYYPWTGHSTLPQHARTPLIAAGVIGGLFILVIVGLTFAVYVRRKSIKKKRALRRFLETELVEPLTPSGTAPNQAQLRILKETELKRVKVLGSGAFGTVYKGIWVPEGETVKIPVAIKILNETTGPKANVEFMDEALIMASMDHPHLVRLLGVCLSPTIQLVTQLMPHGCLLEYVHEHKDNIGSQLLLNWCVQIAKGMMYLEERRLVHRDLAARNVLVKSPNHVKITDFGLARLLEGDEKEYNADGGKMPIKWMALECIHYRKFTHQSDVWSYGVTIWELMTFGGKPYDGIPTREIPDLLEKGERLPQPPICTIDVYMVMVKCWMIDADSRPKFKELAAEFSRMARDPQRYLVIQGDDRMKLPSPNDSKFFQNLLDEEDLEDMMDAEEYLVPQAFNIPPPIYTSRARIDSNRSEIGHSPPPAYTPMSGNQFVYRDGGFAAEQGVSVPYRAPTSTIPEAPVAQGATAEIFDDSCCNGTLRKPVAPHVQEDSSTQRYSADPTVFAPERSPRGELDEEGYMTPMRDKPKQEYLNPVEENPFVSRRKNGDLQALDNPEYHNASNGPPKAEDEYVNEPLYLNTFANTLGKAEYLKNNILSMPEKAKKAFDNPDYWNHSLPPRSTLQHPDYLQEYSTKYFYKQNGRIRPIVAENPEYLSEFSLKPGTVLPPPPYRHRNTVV

Chain of JNK3 (MAPK10) (P53779 whole entry): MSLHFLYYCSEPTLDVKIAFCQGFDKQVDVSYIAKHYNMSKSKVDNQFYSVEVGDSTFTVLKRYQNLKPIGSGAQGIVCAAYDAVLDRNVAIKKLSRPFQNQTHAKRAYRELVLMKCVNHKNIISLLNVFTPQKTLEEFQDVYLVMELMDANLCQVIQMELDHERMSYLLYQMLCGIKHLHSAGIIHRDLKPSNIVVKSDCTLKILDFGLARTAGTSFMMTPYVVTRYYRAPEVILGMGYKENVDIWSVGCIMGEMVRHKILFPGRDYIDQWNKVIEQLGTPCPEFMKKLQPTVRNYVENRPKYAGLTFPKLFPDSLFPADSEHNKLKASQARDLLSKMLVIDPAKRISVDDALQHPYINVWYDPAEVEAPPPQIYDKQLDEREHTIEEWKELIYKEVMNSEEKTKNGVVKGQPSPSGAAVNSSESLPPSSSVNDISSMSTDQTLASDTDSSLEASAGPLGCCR

JNK3 (MAPK10) POC [1]	TXK binding POC [2]	MKK7 binding POC [3]	MKK7 binding POC ([3]; listed as elsubrutinib)	JAK3 binding POC [4]	ITK binding POC [5]	EGFR binding POC [6]	JNK1 (MAPK8) POC [7]	ERBB2 binding POC [8]	TEC binding POC [9]	ERBB4 binding POC [10]	Structure (SMILES)
94% of control	25% of control	24% of control	weak hit	0.15% of control	94% of control	90% of control	96% of control	73% of control	18% of control	91% of control	C=CC(=O)N1CCC[C@@H](c2ccc(C(N)=O)c3[nH]ccc23)C1 [Elsubrutinib]
100% of control	53% of control	89% of control	–	95% of control	25% of control	95% of control	100% of control	97% of control	17% of control	100% of control	C[C@H]1CN(C2COC2)CCN1c1ccc(Nc2cc(-c3ccnc(N4CCn5c(cc6c5CC(C)(C)C6)C4=O)c3CO)cn(C)c2=O)nc1 [Fenebrutinib]
100% of control	2.7% of control	39% of control	–	86% of control	86% of control	0% of control	39% of control	0% of control	7.3% of control	0.35% of control	O=C(c1ccc(Oc2ccccc2)cc1Cl)c1c[nH]c2ncnc(N[C@@H]3CC[C@@H](CO)OC3)c12 [Nemtabrutinib]
100% of control	11% of control	91% of control	–	77% of control	100% of control	0.5% of control	96% of control	5.9% of control	12% of control	2% of control	COc1ccc(F)cc1C(=O)NCc1ccc(-c2nn([C@@H](C)C(F)(F)F)c(N)c2C(N)=O)cc1 [Pirtobrutinib]
100% of control	4.4% of control	100% of control	–	0.45% of control	1% of control	1.2% of control	32% of control	8.7% of control	8.5% of control	0.15% of control	C=CC(=O)Nc1cccc(Oc2nc(Nc3ccc(N4CCN(C)CC4)cc3)nc3ccoc23)c1 [Poseltinib]
3.9% of control	4.5% of control	79% of control	–	0% of control	51% of control	49% of control	4.8% of control	57% of control	8.1% of control	17% of control	C=CC(=O)Nc1cccc(Nc2nc(Nc3ccc(OCCOC)cc3)ncc2F)c1 [Spebrutinib]
